IC50 and Activity data for 13 molecules are collected here from ChEMBL document CHEMBL4414666, “Structure-Activity Relationships of Pentacyclic Triterpenoids as Inhibitors of Cyclooxygenase and Lipoxygenase Enzymes” (J Nat Prod, 2019).

Experiment [1] has as its target T1, Polyunsaturated fatty acid 5-lipoxygenase (Homo sapiens, UniProt P09917).
T1 sequence (P09917 whole entry): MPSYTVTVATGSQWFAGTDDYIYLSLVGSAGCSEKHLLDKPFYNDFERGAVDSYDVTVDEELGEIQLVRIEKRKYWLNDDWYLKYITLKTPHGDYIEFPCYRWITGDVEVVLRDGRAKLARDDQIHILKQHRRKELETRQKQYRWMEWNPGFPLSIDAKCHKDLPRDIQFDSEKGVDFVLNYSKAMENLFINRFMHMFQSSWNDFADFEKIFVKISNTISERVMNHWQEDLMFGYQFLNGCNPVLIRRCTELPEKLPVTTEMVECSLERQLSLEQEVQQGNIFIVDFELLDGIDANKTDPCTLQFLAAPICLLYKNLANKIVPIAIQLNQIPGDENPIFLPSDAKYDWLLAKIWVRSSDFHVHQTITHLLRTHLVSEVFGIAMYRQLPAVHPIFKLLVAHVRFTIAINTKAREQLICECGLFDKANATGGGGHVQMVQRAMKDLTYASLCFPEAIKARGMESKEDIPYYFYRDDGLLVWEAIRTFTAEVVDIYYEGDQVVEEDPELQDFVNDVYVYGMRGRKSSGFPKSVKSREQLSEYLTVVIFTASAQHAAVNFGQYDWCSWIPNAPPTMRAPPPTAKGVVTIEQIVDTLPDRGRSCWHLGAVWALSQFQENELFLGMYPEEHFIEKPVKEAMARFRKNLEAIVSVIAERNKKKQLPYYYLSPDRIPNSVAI
As to the kind of experiment: Inhibition of human recombinant 5-LOX expressed in insect cells assessed as decrease in production of 5-HPETE and 5-HETE using arachidonic acid as substrate preincubated for 5 mins followed by substrate addition measured after 20 mins in dark by ferric ion oxidation-xylenol orange method.

Experiment [2] has as its target T2, Polyunsaturated fatty acid lipoxygenase ALOX15B (Homo sapiens) (UniProt O15296).
T2 sequence (whole entry): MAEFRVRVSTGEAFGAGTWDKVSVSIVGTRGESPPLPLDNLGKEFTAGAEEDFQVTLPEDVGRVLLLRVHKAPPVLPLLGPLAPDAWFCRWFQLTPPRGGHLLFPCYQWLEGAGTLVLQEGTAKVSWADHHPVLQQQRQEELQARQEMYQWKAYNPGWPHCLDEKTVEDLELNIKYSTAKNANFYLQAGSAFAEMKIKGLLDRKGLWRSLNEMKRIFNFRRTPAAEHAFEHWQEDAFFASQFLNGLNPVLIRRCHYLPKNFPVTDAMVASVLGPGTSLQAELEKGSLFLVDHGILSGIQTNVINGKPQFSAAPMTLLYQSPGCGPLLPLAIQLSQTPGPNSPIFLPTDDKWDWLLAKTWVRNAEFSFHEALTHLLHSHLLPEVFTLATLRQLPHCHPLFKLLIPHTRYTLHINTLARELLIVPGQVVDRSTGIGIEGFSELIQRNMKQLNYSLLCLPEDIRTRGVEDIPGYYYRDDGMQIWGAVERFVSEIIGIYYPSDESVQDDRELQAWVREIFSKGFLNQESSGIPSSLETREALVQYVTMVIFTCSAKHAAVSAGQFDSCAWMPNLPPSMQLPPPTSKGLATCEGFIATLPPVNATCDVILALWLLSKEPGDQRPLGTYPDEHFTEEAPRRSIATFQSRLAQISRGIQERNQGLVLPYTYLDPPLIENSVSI
Nature of the experiment: Inhibition of human recombinant N-terminal His-tagged 15-LOX2 expressed in Escherichia coli assessed as residual activity at 42 uM using arachidonic acid as substrate preincubated for 5 mins followed by substrate addition measured after 20 mins in dark by ferric ion oxidation-xylenol orange assay relative to control.

The target of experiment [3] is T3, Prostaglandin G/H synthase 2 (Homo sapiens, UniProt P35354).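 Further: recombinant enzyme produced in baculovirus-infected Sf21 cells, arachidonic acid substrate, PGE2 output quantified by LC-MS after 45 min, compounds preincubated 10 min beforehand, lower PGE2 means inhibition.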
T3 sequence (P35354 whole entry): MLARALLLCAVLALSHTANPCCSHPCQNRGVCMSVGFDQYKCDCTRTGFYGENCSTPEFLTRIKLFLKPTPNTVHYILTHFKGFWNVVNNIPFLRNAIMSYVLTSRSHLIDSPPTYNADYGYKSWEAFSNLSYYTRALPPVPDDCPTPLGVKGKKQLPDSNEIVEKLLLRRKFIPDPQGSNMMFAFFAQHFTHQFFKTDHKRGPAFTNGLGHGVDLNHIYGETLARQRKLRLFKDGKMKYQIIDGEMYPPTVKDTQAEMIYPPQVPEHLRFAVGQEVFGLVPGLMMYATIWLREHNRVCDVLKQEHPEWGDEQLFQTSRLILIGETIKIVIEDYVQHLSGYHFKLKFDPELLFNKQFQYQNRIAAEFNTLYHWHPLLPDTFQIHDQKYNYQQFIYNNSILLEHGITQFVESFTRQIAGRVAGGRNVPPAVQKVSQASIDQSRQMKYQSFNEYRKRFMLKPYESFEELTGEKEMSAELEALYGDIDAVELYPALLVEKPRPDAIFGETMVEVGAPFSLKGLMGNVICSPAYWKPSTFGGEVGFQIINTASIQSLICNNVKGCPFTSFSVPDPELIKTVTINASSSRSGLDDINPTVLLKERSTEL
As to the kind of experiment: biochemical. The experiment is classed as cell-based, Sf21.
Description: Inhibition of human recombinant COX2 expressed in baculovirus infected sf21 cells assessed as decrease in PGE2 formation using arachidonic acid as substrate preincubated for 10 mins followed by substrate addition measured after 45 mins by LC-MS analysis

In experiment [4] the target is T4, Prostaglandin G/H synthase 1 (Ovis aries, UniProt P05979).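 Further: recombinant ovine COX1 enzyme, PGE2 formed from arachidonic acid quantified by LC-MS, 10 min inhibitor preincubation then 45 min reaction, inhibition seen as reduced PGE2.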
T4 sequence (P05979 whole entry): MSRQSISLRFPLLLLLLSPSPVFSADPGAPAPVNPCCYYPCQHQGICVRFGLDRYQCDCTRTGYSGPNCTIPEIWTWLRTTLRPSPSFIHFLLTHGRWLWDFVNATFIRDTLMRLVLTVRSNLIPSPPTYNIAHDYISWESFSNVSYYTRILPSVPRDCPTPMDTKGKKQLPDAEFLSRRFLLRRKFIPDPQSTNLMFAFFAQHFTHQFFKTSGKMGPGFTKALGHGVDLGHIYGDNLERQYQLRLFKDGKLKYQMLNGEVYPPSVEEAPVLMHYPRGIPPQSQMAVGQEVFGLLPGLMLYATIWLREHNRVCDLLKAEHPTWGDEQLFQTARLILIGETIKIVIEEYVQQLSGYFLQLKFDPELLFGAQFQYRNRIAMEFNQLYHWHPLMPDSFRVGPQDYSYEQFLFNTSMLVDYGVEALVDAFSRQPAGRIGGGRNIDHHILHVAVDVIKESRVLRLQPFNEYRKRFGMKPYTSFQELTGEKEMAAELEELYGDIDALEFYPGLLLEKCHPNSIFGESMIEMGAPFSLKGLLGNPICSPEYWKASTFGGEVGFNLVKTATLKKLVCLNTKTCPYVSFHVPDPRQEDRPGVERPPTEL
Description: Inhibition of ovine recombinant COX1 assessed as decrease in formation of PGE2 using arachidonic acid as substrate preincubated for 10 mins followed by substrate addition measured after 45 mins by LC-MS analysis

The target of experiment [5] is T5, Polyunsaturated fatty acid lipoxygenase ALOX15B (Homo sapiens, UniProt O15296).
T5 sequence (O15296 whole entry): T2 sequence (whole entry)
Nature of the experiment: Inhibition of human recombinant N-terminal His-tagged 15-LOX2 expressed in Escherichia coli using arachidonic acid as substrate preincubated for 5 mins followed by substrate addition measured after 20 mins in dark by ferric ion oxidation-xylenol orange assay.

In experiment [6] the target is T6, Polyunsaturated fatty acid 5-lipoxygenase (Homo sapiens) (UniProt P09917).
T6 sequence (whole entry): T1 sequence (P09917 whole entry)
As to the kind of experiment: Inhibition of human recombinant 5-LOX expressed in insect cells assessed residual activity using arachidonic acid at 42 uM as substrate preincubated for 5 mins followed by substrate addition measured after 20 mins in dark by ferric ion oxidation-xylenol orange method relative to control.

As to `CC1(C)CC[C@]2(C(=O)O)CC[C@]3(C)C(=CC[C@@H]4[C@@]5(C)CC[C@H](O)[C@@](C)(CO)[C@@H]5CC[C@]43C)[C@@H]2C1` [HEDERAGENIN], the IC50 (commonly the concentration that gives 50% inhibition) in experiment [1] (read-out: IC50) was > 40 µM; in experiment [3] (sf21) it was “Not Active”; in experiment [4], “Not Active”; in experiment [5] (read-out: IC50) it was > 40 µM. Further, the Activity in experiment [2] came out at 64.7%; in experiment [6], 59.8%.
As to `CC1(C)CC[C@]2(C)CC[C@]3(C)C(=CC[C@@H]4[C@@]5(C)CC[C@H](O)[C@](C)(CO)[C@@H]5CC[C@]43C)[C@@H]2C1`, the IC50 in experiment [1] (read-out: IC50) was 30.6 µM; in experiment [3] (sf21), “Not Active”; in experiment [4], “Not Active”; in experiment [5] it was “Not Active”. For the same molecule, the Activity in experiment [2] was found to be 100%; in experiment [6] it was 29.8%.
`C[C@H]1[C@H](C)CC[C@]2(C)CC[C@]3(C)C(=CC[C@@H]4[C@@]5(C)CC[C@H](O)C(C)(C)[C@@H]5CC[C@]43C)[C@H]12`: the IC50 in experiment [1] (read-out: IC50) is > 40 µM; in experiment [3] (sf21), “Not Active”; in experiment [4], “Not Active”; in experiment [5], “Not Active”. In addition, the Activity in experiment [2] was determined as 100%; in experiment [6] it was 55.5%.
With `CC1(C)CC[C@]2(C(=O)O)CC[C@]3(C)C(=CC[C@@H]4[C@@]5(C)CC[C@H](O)[C@@](C)(C=O)[C@@H]5CC[C@]43C)[C@@H]2C1`, the IC50 entry in experiment [1], in experiment [3] (sf21), in experiment [4] and in experiment [5] was “Not Active” in each case. Besides, the Activity in experiment [2] and in experiment [6] was 100% each time.
Turning to `CC1(C)[C@@H](O)CC[C@]2(C)[C@H]3CC=C4[C@@H]5C[C@@](C)(CO)CC[C@]5(C)CC[C@@]4(C)[C@]3(C)CC[C@@H]12`, the IC50 was 31.8 µM in experiment [1] (read-out: IC50), > 40 µM in experiment [3] (read-out: IC50), “Not Active” in experiment [4] and “Not Active” in experiment [5]. Besides, the Activity in experiment [2] came to 100%; in experiment [6] it was 34.8%.
On to `CC1(C)CC[C@]2(C)CC[C@]3(C)C(=CC(=O)[C@@H]4[C@@]5(C)CC[C@H](O)C(C)(C)[C@@H]5CC[C@]43C)[C@@H]2C1`, for which the IC50 in experiment [1] (read-out: IC50) is > 40 µM; in experiment [3] (read-out: IC50) it was > 40 µM; in experiment [4], “Not Active”; in experiment [5], “Not Active”. In addition, the Activity in experiment [2] came out at 100%; in experiment [6] it was 70.4%.
In the case of `C[C@H]1[C@H](C)CC[C@]2(C)CC[C@]3(C)C(=CC[C@@H]4[C@@]5(C)CCC(=O)C(C)(C)[C@@H]5CC[C@]43C)[C@H]12`, the IC50 result is “Not Active” in experiment [1], > 40 µM in experiment [3] (read-out: IC50), “Not Active” in experiment [4] and “Not Active” in experiment [5]. Also, the Activity in experiment [2] and in experiment [6] was 100% each time.
Consider `CC1(C)CC[C@]2(C(=O)O)CC[C@]3(C)C(=CC[C@@H]4[C@@]5(C)C[C@H](O)[C@H](O)[C@@](C)(C(=O)O)[C@@H]5CC[C@]43C)[C@@H]2C1`, for which the IC50 in experiment [1] (read-out: IC50) is 30.4 µM; in experiment [3] (read-out: IC50) it was > 40 µM; in experiment [4] it was “Not Active”; in experiment [5] it was “Not Active”. For the same molecule, the values for the Activity in experiment [2] and in experiment [6] were 100% and 40.7%, respectively.
As to `CC1(C)[C@@H](O)CC[C@]2(C)[C@H]3C(=O)C=C4[C@@H]5C[C@@](C)(CO)CC[C@]5(C)CC[C@@]4(C)[C@]3(C)CC[C@@H]12`, the IC50 in experiment [1] (read-out: IC50) was 25.7 µM; in experiment [3] (read-out: IC50) it was > 40 µM; in experiment [4], “Not Active”; in experiment [5], “Not Active”. For the same molecule, the Activity in experiment [2] was found to be 100%; in experiment [6] it was 25.2%.
Consider `CC1(C)CC[C@]2(CO)CC[C@]3(C)C(=CC[C@@H]4[C@@]5(C)CC[C@H](O)C(C)(C)[C@@H]5CC[C@]43C)[C@@H]2C1` [ERYTHRODIOL], for which the IC50 in experiment [1] (read-out: IC50) is > 40 µM; in experiment [3] (sf21) it was “Not Active”; in experiment [4], “Not Active”; in experiment [5], “Not Active”. In addition, the Activity in experiment [2] is 100%; in experiment [6] it was 60.7%.
As for `CC1(C)CC[C@]2(C(=O)O)CC[C@]3(C)C(=CC[C@@H]4[C@@]5(C)CC[C@H](O)[C@@](C)(C(=O)O)[C@@H]5CC[C@]43C)[C@@H]2C1`, the IC50 in experiment [1] (read-out: IC50) is > 40 µM; in experiment [3] (sf21) it was “Not Active”; in experiment [4], “Not Active”; in experiment [5] it was “Not Active”. The Activity in experiment [2] amounted to 100%; in experiment [6], 86%.
For `CC1(C)[C@@H](O)CC[C@]2(C)[C@H]3C(=O)C=C4[C@@H]5C[C@@](C)(C(=O)O)CC[C@]5(C)CC[C@@]4(C)[C@]3(C)CC[C@@H]12` [ENOXOLONE], the IC50 is 24.8 µM in experiment [1] (read-out: IC50), > 40 µM in experiment [3] (read-out: IC50), “Not Active” in experiment [4] and > 40 µM in experiment [5] (read-out: IC50). The results for the Activity in experiment [2] and in experiment [6] were 98.6% and 28.3%, respectively.
`C[C@H]1[C@H](C)CC[C@]2(CO)CC[C@]3(C)C(=CC[C@@H]4[C@@]5(C)CC[C@H](O)C(C)(C)[C@@H]5CC[C@]43C)[C@H]12` [UVAOL]: the Activity is 70.2% in experiment [2] and 45% in experiment [6]. For the same molecule, the 50% inhibitory concentration (IC50) result is “Not Active” in experiment [3] (sf21), “Not Active” in experiment [4] and > 40 µM in experiment [5] (read-out: IC50).
